Test results: ChEMBL document CHEMBL5338731, “Development of Neuropeptide Hemokinin-1 Analogues with Antimicrobial and Wound-Healing Activity” (J Med Chem, 2023)
Active and inactive are the calls of the source. The rule behind the calls is not given here.

Legend:
Staphylococcus aureus [1] = test: Antimicrobial activity against Staphylococcus aureus ATCC 25923 assessed as inhibition of bacterial growth incubated for 18 hrs by serial dilution method; type: functional
Escherichia coli [2] = test: Bactericidal activity against Escherichia coli ATCC 25922 assessed as reduction in colony forming unit at 2 times MIC and measured after 90 mins by time-kill kinetics assay; type: functional, organism-based
Mus musculus [3] = organism: Mus musculus; test: Wound healing activity in Kunming mouse full-thickness excisional wound model with splints assessed as increase in wound healing rate at 1 10^-7M, TOP BID and measured upto 8 days by image analysis; type: functional, organism-based; conditions: time <= 8.0 day
Staphylococcus aureus [4] = test: Bactericidal activity against Staphylococcus aureus ATCC 25923 assessed as reduction in colony forming unit at 2 times MIC and measured after 120 mins by time-kill kinetics assay; type: functional, organism-based
RAW264.7 [5] = test: Anti-inflammatory activity against LPS-stimulated mouse RAW264.7 cells assessed as reduction in IL-1beta mRNA expression level at 1 to 16 uM incubated for 4 hrs by RT-qPCR analysis; type: functional, cell-based; conditions: dose 1-16 µM
Pseudomonas aeruginosa [6] = test: Antimicrobial activity against Pseudomonas aeruginosa ATCC 27853 assessed as inhibition of bacterial growth incubated for 18 hrs by serial dilution method; type: functional
Mus musculus [7] = organism: Mus musculus; test: Wound healing activity in Kunming mouse full-thickness excisional wound model assessed as increase in wound closure at 0.1 to 10 uM, TOP BID and measured upto 8 days by image analysis; type: functional, organism-based; conditions: dose 0.1-10 µM, time <= 8.0 day
Staphylococcus aureus [8] = test: Bactericidal activity against Staphylococcus aureus ATCC 25923 assessed as reduction in colony forming unit at 1 to 4 times MIC and measured after 120 mins by time-kill kinetics assay; type: functional, organism-based
Mus musculus [9] = organism: Mus musculus; test: Wound healing activity in Kunming mouse full-thickness excisional wound model assessed as increase in wound closure at 1 10^-7M, TOP BID and measured upto 8 days by image analysis; type: functional, organism-based; conditions: time <= 8.0 day
Cell membrane [10] = test: Induction of inner cell membrane permeabilization in Escherichia coli ML-35 assessed as increase in absorbance at 1 to 8 times of MIC and measured every 5mins for 90 mins by ONPG beta-galactosidase based assay; type: subcellular
Escherichia coli [11] = test: Bactericidal activity against Escherichia coli ATCC 25922 assessed as reduction in colony forming unit at 1 times MIC and measured after 120 mins by time-kill kinetics assay; type: functional, organism-based
Escherichia coli [12] = test: Bactericidal activity against Escherichia coli ATCC 25922 assessed as reduction in colony forming unit at 4 times MIC and measured after 60 mins by time-kill kinetics assay; type: functional, organism-based
Cell membrane [13] = test: Induction of cell membrane disruption in Escherichia coli ATCC 25922 assessed as separation between outer membrane and cytoplasmic membrane at 2 times MIC incubated for 2 hrs by TEM analysis; type: subcellular
Mus musculus [14] = organism: Mus musculus; test: Wound healing activity in Staphylococcus aureus ATCC 25923 infected Kunming mouse excisional wound model assessed as increase in wound repair at 1 10^-4M, TOP BID and measured upto 8 days by image analysis; type: functional, organism-based; conditions: time <= 8.0 day
Mus musculus [15] = organism: Mus musculus; test: Wound healing activity in STZ-induced Kunming mouse diabetic wound model assessed as increase in wound repair at 1 10^-7M, TOP BID and measured upto 8 days by image analysis; type: functional, organism-based; conditions: time <= 8.0 day
NIH3T3 [16] = test: Induction of cell migration in mouse NIH3T3 cells assessed as […] at 0.1 to 1000 nM incubated for 48 hrs by phase-contrast microscopy based scratch wound healing assay; type: functional; conditions: dose 0.1-1000 nM
Cell membrane [17] = test: Induction of cell membrane disruption in Escherichia coli ATCC 25922 assessed as sparse cytoplasmic distribution at 2 times MIC incubated for 2 hrs by TEM analysis; type: subcellular
RAW264.7 [18] = test: Anti-inflammatory activity against LPS-stimulated mouse RAW264.7 cells assessed as reduction in IL-6 mRNA expression level at 1 to 16 uM incubated for 4 hrs by RT-qPCR analysis; type: functional, cell-based; conditions: dose 1-16 µM
Mus musculus [19] = organism: Mus musculus; test: Antimicrobial activity in Staphylococcus aureus ATCC 25923 infected Kunming mouse excisional wound model assessed as decrease in bacterial growth at 1 10^-4M, TOP BID and measured upto 8 days by image analysis; type: functional, organism-based; conditions: time <= 8.0 day
Staphylococcus aureus [20] = test: Antimicrobial activity against Staphylococcus aureus ATCC 29213 assessed as inhibition of bacterial growth incubated for 18 hrs by serial dilution method; type: functional
Escherichia coli [21] = test: Antimicrobial activity against Escherichia coli ML-35 assessed as inhibition of bacterial growth incubated for 18 hrs by serial dilution method; type: functional
Cell membrane [22] = test: Induction of cell membrane disruption in Escherichia coli ATCC 25922 assessed as membrane blebbing at 2 times MIC incubated for 2 hrs by SEM analysis; type: subcellular
Cell membrane [23] = test: Induction of cell membrane disruption in Staphylococcus aureus ATCC 25923 assessed as distinct wrinkling in cell morphology at 2 times MIC incubated for 2 hrs by SEM analysis; type: subcellular
HEK293 [24] = test: Induction of cell proliferation in human HEK293 cells expressing NK1R assessed as increase in cell viability at 0.1 to 1000 nM incubated for 48 hrs by MTT assay; type: functional, cell-based; conditions: dose 0.1-1000 nM
Cell membrane [25] = test: Induction of cell membrane disruption in Staphylococcus aureus ATCC 25923 assessed as membrane blebbing at 2 times MIC incubated for 2 hrs by SEM analysis; type: subcellular
Pseudomonas aeruginosa [26] = test: Antimicrobial activity against Pseudomonas aeruginosa PAO1 assessed as inhibition of bacterial growth incubated for 18 hrs by serial dilution method; type: functional
NIH3T3 [27] = test: Induction of cell proliferation in mouse NIH3T3 cells assessed as increase in cell viability at 0.1 to 1000 nM incubated for 48 hrs by MTT assay; type: functional, cell-based; conditions: dose 0.1-1000 nM
Lipopolysaccharide (LPS) = test: Binding affinity to Escherichia coli O111:B4 LPS assessed as dissociation constant by ITC assay
Escherichia coli [28] = test: Antimicrobial activity against Escherichia coli ATCC 25922 assessed as inhibition of bacterial growth incubated for 18 hrs by serial dilution method; type: functional
RAW264.7 [29] = test: Anti-inflammatory activity against LPS-stimulated mouse RAW264.7 cells assessed as reduction in TNF-alpha mRNA expression level at 1 to 16 uM incubated for 4 hrs by RT-qPCR analysis; type: functional, cell-based; conditions: dose 1-16 µM
Cell membrane [30] = test: Induction of cell membrane disruption in Staphylococcus aureus ATCC 25923 assessed as sparse cytoplasmic distribution at 2 times MIC incubated for 2 hrs by TEM analysis; type: subcellular
Cell membrane [31] = test: Induction of cell membrane disruption in Staphylococcus aureus ATCC 25923 assessed as coagulation of cytoplasmic elements at 2 times MIC incubated for 2 hrs by TEM analysis; type: subcellular
[32] = Cytotoxicity against mouse RAW264.7 cells assessed as cell survival rate at 16 uM incubated for 24 hrs by MTT assay; type: toxicity, cell-based; conditions: read-out: Survival
Cell membrane [33] = test: Induction of cell membrane disruption in Escherichia coli ATCC 25922 assessed as distinct wrinkling in cell morphology at 2 times MIC incubated for 2 hrs by SEM analysis; type: subcellular
Cell membrane [34] = test: Induction of cell membrane disruption in Escherichia coli ATCC 25922 assessed as PI uptake at 2 times MIC incubated for 1 hrs by PI staining based confocal laser scanning microscopy; type: subcellular
Cell membrane [35] = test: Induction of cell membrane disruption in Staphylococcus aureus ATCC 25923 assessed as PI uptake at 2 times MIC incubated for 1 hrs by PI staining based confocal laser scanning microscopy; type: subcellular
[36] = Hemolytic activity in mouse erythrocytes assessed as haemoglobin release at 400 uM incubated for 1 hrs by microplate reader method; type: toxicity, cell-based, Erythrocyte; conditions: read-out: Activity
Cell membrane [37] = test: Induction of outer cell membrane permeability in Escherichia coli ATCC 25922 assessed as increase fluoresence intensity at 1 to 8 times of MIC and measured every mins for 15 mins by NPN uptake assay; type: subcellular
Cell membrane [38] = test: Induction of cell membrane disruption in Escherichia coli ATCC 25922 assessed as coagulation of cytoplasmic elements at 2 times MIC incubated for 2 hrs by TEM analysis; type: subcellular
Cell membrane [39] = test: Induction of cell membrane disruption in Staphylococcus aureus ATCC 25923 assessed as separation between […] at 2 times MIC incubated for 2 hrs by TEM analysis; type: subcellular
HEK293 [40] = test: Induction of cell proliferation in human HEK293 cells assessed as increase in cell viability at 0.1 to 1000 nM incubated for 48 hrs by MTT assay; type: functional, cell-based; conditions: dose 0.1-1000 nM
RAW264.7 [41] = test: Anti-inflammatory activity in LPS-stimulated mouse RAW264.7 cells assessed as inhibition of NO production at 16 uM incubated for 24 hrs by Griess reagent based assay; type: functional, cell-based
Bacillus subtilis = test: Antimicrobial activity against Bacillus subtilis ATCC 23857 assessed as inhibition of bacterial growth incubated for 18 hrs by serial dilution method; type: functional
RAW264.7 [42] = test: Cytotoxicity against mouse RAW264.7 cells assessed as reduction in cell viability at 1 to 16 uM incubated for 24 hrs by MTT assay; type: toxicity, cell-based; conditions: raw264.7, 24 h, dose 1-16 µM

Substance: H-LKKWLKKWTLKASQFFGLM-NH2
- MIC (Staphylococcus aureus [1]): 2 µM
- Activity (Escherichia coli [2]): Active
- Activity (Mus musculus [3]): Active
- Activity (Staphylococcus aureus [4]): Active
- Activity (RAW264.7 [5]): Dose-Dependent Effect
- MIC (Pseudomonas aeruginosa [6]): 2 µM
- Activity (Mus musculus [7]): inactive
- Activity (Staphylococcus aureus [8]): Active
- Activity (Mus musculus [9]): Active
- Activity (Cell membrane [10]): Active
- Activity (Escherichia coli [11]): Active
- Activity (Escherichia coli [12]): Active
- Activity (Cell membrane [13]): Active
- Activity (Mus musculus [14]): inactive
- Activity (Mus musculus [15]): Active
- Activity (NIH3T3 [16]): Active
- Activity (Cell membrane [17]): Active
- Activity (RAW264.7 [18]): Dose-Dependent Effect
- Activity (Mus musculus [19]): Active
- MIC (Staphylococcus aureus [20]): 4 µM
- MIC (Escherichia coli [21]): 2 µM
- Activity (Cell membrane [22]): Active
- Activity (Cell membrane [23]): Active
- Activity (HEK293 [24]): Active
- Activity (Cell membrane [25]): Active
- MIC (Pseudomonas aeruginosa [26]): 2 µM
- Activity (NIH3T3 [27]): Active
- Kd (Lipopolysaccharide (LPS)): 13.4 µM
- MIC (Escherichia coli [28]): 2 µM
- Activity (RAW264.7 [29]): Dose-Dependent Effect
- Activity (Cell membrane [30]): Active
- Activity (Cell membrane [31]): Active
- viability at 24 h, 16 µM [32]: > 90%
- Activity (Cell membrane [33]): Active
- Activity (Cell membrane [34]): Active
- Activity (Cell membrane [35]): Active
- hemolysis at 1 h, 400 µM [36]: 19.5%
- Activity (Cell membrane [37]): Dose-Dependent Effect
- Activity (Cell membrane [38]): Active
- Activity (Cell membrane [39]): Active
- Activity (HEK293 [40]): inactive
- inhibition (RAW264.7 [41]): Active
- MIC (Bacillus subtilis): 2 µM

Substance: H-LKKWLKKWTPKASQFFGLM-NH2
- MIC (Staphylococcus aureus [1]): 32 µM
- Activity (Mus musculus [3]): Active
- Activity (RAW264.7 [5]): Dose-Dependent Effect
- MIC (Pseudomonas aeruginosa [6]): 2 µM
- Activity (Mus musculus [9]): Active
- Activity (NIH3T3 [16]): Active
- Activity (RAW264.7 [18]): Dose-Dependent Effect
- MIC (Staphylococcus aureus [20]): 32 µM
- MIC (Escherichia coli [21]): 2 µM
- Activity (HEK293 [24]): Active
- MIC (Pseudomonas aeruginosa [26]): 4 µM
- Activity (NIH3T3 [27]): Active
- Kd (Lipopolysaccharide (LPS)): 311 µM
- MIC (Escherichia coli [28]): 2 µM
- Activity (RAW264.7 [29]): Dose-Dependent Effect
- viability at 24 h, 16 µM [32]: > 90%
- hemolysis at 1 h, 400 µM [36]: 2.94%
- Activity (HEK293 [40]): inactive
- inhibition (RAW264.7 [41]): Active
- MIC (Bacillus subtilis): 2 µM

Substance: H-LKKWTGKASQFFGLM-NH2
- MIC (Staphylococcus aureus [1]): > 128 µM
- MIC (Pseudomonas aeruginosa [6]): 128 µM
- Activity (Mus musculus [9]): Active
- Activity (RAW264.7 [42]): Non-Toxic
- MIC (Staphylococcus aureus [20]): > 128 µM
- MIC (Escherichia coli [21]): 64 µM
- MIC (Pseudomonas aeruginosa [26]): 128 µM
- MIC (Escherichia coli [28]): 64 µM
- hemolysis at 1 h, 400 µM [36]: 1.01%
- inhibition (RAW264.7 [41]): inactive
- MIC (Bacillus subtilis): 64 µM

Substance: H-LKKWTLKASQFFGLM-NH2
- MIC (Staphylococcus aureus [1]): > 128 µM
- MIC (Pseudomonas aeruginosa [6]): 64 µM
- Activity (Mus musculus [9]): Active
- MIC (Staphylococcus aureus [20]): 128 µM
- MIC (Escherichia coli [21]): 16 µM
- MIC (Pseudomonas aeruginosa [26]): 64 µM
- MIC (Escherichia coli [28]): 16 µM
- viability at 24 h, 16 µM [32]: > 90%
- hemolysis at 1 h, 400 µM [36]: 11.2%
- inhibition (RAW264.7 [41]): Active
- MIC (Bacillus subtilis): 16 µM
